Read-outs that look alike come from different tables or passages of the source.

Test [1] relates to adjuvant arthritis, a model for rheumatoid arthritis. The note with it: in vivo; cited from earlier work.
A further test deals with tumor. Particulars: alone or in combination with picibanil; cited from earlier work.
In test [2] the test system is adjuvant arthritis, uninjected (left) hind paw inflammation. The test can be described thus: Adjuvant arthritis standard pharmacological test procedure. In kind it is in vivo, male Wistar Lewis rats. The note with it: 2 mg/kg, oral, uninjected paw at day 16; for Percent change in adjuvant arthritis versus control: 7 doses day 0-14, more negative = more potent. The method, then: (§1) Immunosuppressive activity for representative compounds of this invention was evaluated in an in vitro standard pharmacological test procedure to measure lymphocyte proliferation (LAF) and in three in vivo standard pharmacological test procedures. The pinch skin graft test procedure measures the immunosuppressive activity of the compound tested as well as the ability of the compound tested to inhibit or treat transplant rejection. The adjuvant arthritis standard pharmacological test procedure, which measures the ability of the compound tested to inhibit immune mediated inflammation. The adjuvant arthritis test procedure is a standard pharmacological test procedure for rheumatoid arthritis. Representative compounds of this invention were also evaluated in a heart allograft standard pharmacological test procedure which measures immunosuppressive activity of the compound tested as well as the ability of the compound tested to inhibit or treat transplant rejection. The procedures for these standard pharmacological test procedures are provided below.
The adjuvant arthritis standard pharmacological test procedure measures the ability of test compounds to prevent immune mediated inflammation and inhibit or treat rheumatoid arthritis. The following briefly describes the test procedure used. A group of rats (male inbread Wistar Lewis rats) are pre-treated with the compound to be tested (1 h prior to antigen) and then injected with Freud's Complete Adjuvant (FCA) in the right hind paw to induce arthritis. The rats are then orally dosed on a Monday, Wednesday, Friday schedule from day 0-14 for a total of 7 doses. Both hind paws are measured on days 16, 23, and 30. The difference in paw volume (mL) from day 16 to day 0 is determined and a percent change from control is obtained. […] The right hind paw inflammation, on the other hand, is caused by nonspecific inflammation. Compounds were tested at a dose of 2 mg/kg.

In test [3] the test system is formation of IgE-like antibodies. The note with it: in vivo; cited from earlier work.
The subject of test [4] is experimental allergic encephalomyelitis, a model for multiple sclerosis. Particulars: in vivo; cited from earlier work.
Another test concerns Candida albicans. The note with it: in vitro and in vivo; cited from earlier work.
Test [5] concerns lymphocyte proliferation (thymus cells of normal BALB/c mice). Nature of the test: Comitogen-induced thymocyte proliferation procedure (LAF). In kind it is cell-based. The note with it: Mus musculus, read-out: LAF IC50. The method, then:
as §1
The comitogen-induced thymocyte proliferation procedure (LAF) was used as an in vitro measure of the immunosuppressive effects of representative compounds. Briefly, cells from the thymus of normal BALB/c mice are cultured for 72 hours with PHA and IL-1 and pulsed with tritiated thymidine during the last six hours. Cells are cultured with and without various concentrations of rapamycin, cyclosporin A, or test compound. Cells are harvested and incorporated radioactivity is determined. Inhibition of lymphoproliferation is assessed as percent change in counts per minute from non-drug treated controls. For each compound evaluated, rapamycin was also evaluated for the purpose of comparison. An IC50 was obtained for each test compound as well as for rapamycin. […] The results obtained are provided as an IC50.

Another test has as its system pinch skin graft. Nature of the test: Pinch skin graft survival test procedure. In kind it is in vivo, male BALB/c donors, male C3 H(H-2K) recipients (mice). Particulars: 4 mg/kg; intraperitoneally or orally; untreated grafts usually rejected within 6-7 days. The method, then: as §1
Representative compounds of this invention were also evaluated in an in vivo test procedure designed to determine the survival time of pinch skin graft from male BALB/c donors transplanted to male C3 H(H-2K) recipients. The method is adapted from Billingham R. E. and Medawar P. B., J. Exp. Biol. 28:385-402, (1951). Briefly, a pinch skin graft from the donor was grafted on the dorsum of the recipient as a allograft, and an isograft was used as control in the same region. The recipients were treated with either varying concentrations of test compounds intraperitoneally or orally. Rapamycin was used as a test control. Untreated recipients serve as rejection control. The graft was monitored daily and observations were recorded until the graft became dry and formed a blackened scab. This was considered as the rejection day. The mean graft survival time (number of days±S.D.) of the drug treatment group was compared with the control group. […] Results are expressed as the mean survival time in days. Untreated (control) pinch skin grafts are usually rejected within 6-7 days. Compounds were tested using a dose of 4 mg/kg.

Another test relates to heart allograft. Nature of the test: Heterotropic heart allograft standard pharmacological test procedure. Particulars: 300 μg/day, i.p.; untreated rejected in about 9-10 days. In kind it is in vivo, BN rat neonate donors, male Lewis rat recipients. The method, then: as §1
The ability of the compounds of this invention to induce immunosuppression and inhibit or treat transplantation rejection was evaluated in a heterotropic heart allograft standard pharmacological test procedure that emulates transplantation rejection that occurs in humans. The following briefly describes the procedure that was used. […]

In another test the test system is immunosuppression. Particulars: cited from earlier work.
Setting [6] is: 72 h culture with PHA and IL-1, tritiated thymidine incorporation.

As usually defined, the IC50 is the concentration that inhibits the measured activity by half. Regarding `CO[C@H]1C[C@@H]2CC[C@@H](C)[C@@](O)(O2)C(=O)C(=O)N2CCCC[C@H]2C(=O)O[C@H]([C@H](C)C[C@@H]2CC[C@@H](O)[C@H](OC)C2)CC(=O)[C@H](C)/C=C(\C)[C@@H](O)[C@@H](OC)C(=O)[C@H](C)C[C@H](C)/C=C/C=C/C=C/1C` [rapamycin], in test [1], the “effectiveness in adjuvant arthritis model” value was “effective”. Also, in the test on tumor, the antitumor activity result is “antitumor activity”. The “less immune induced inflammation than control rats” value in test [2] is recorded as 70-90%. In addition, the “inhibition of formation of IgE-like antibodies” value in test [3] is listed as “effectively inhibited”. In test [4], the “effectiveness in experimental allergic encephalomyelitis model” value is “effective”. Besides, the antifungal activity result with Candida albicans was “antifungal activity, particularly against Candida albicans, both in vitro and in vivo”. Further, the IC50 in test [5] (72 h) was in the range of 0.5 to 1.9 nM.

As to `CO[C@H]1C[C@@H]2CC[C@@H](C)[C@@](O)(O2)C(=O)C(=O)N2CCCC[C@H]2C(=O)O[C@H]([C@H](C)C[C@@H]2CC[C@@H](OC(=O)c3cccnc3C)[C@H](OC)C2)CC(=O)[C@H](C)/C=C(\C)[C@@H](O)[C@@H](OC)C(=O)[C@H](C)C[C@H](C)/C=C/C=C/C=C/1C` [Example 1, Rapamycin 42-ester with 2-methylnicotinic acid], the “Skin graft survival (mean survival time ± S.D.)” value (from here on “Skin graft survival”) in the test on pinch skin graft came out at 11.2 ± 0.8 days. The “Percent change in adjuvant arthritis versus control” value (shortened to “Percent change”) in [2] is reported as -88%. In addition, in the test on heart allograft, the “Heart allograft survival (mean survival time)” value is reported as 29.9 days. Also, in test [5] (setting [6]), the half-maximal inhibitory concentration (IC50) was found to be 1 nM.

Turning to `C=CC[C@@H]1/C=C(\C)C[C@H](C)C[C@H](OC)[C@H]2O[C@@](O)(C(=O)C(=O)N3CCCC[C@H]3C(=O)O[C@H](/C(C)=C/[C@@H]3CC[C@@H](O)[C@H](OC)C3)[C@H](C)[C@@H](O)CC1=O)[C@H](C)C[C@@H]2OC` [FK-506], in the test on immunosuppression, the “effective as immunosuppressive agents” value is “effective”.

For `CO[C@H]1C[C@@H]2CC[C@@H](C)[C@@](O)(O2)C(=O)C(=O)N2CCCC[C@H]2C(=O)O[C@H]([C@H](C)C[C@@H]2CC[C@@H](OC(=O)c3cnc(C)cn3)[C@H](OC)C2)CC(=O)[C@H](C)/C=C(\C)[C@@H](O)[C@@H](OC)C(=O)[C@H](C)C[C@H](C)/C=C/C=C/C=C/1C` [Example 4, Rapamycin 42-ester with 5-methylpyrazine-2-carboxylic acid], the “Skin graft survival” value with pinch skin graft came to 11.33 ± 0.82 days. The “Percent change” value in test [2] is given as -90%. In test [5] (setting [6]), the IC50 is 0.28 nM.

Turning to `CO[C@H]1C[C@@H]2CC[C@@H](C)[C@@](O)(O2)C(=O)C(=O)N2CCCC[C@H]2C(=O)O[C@H]([C@H](C)C[C@@H]2CC[C@@H](OC(=O)c3cccnc3)[C@H](OC)C2)CC(=O)[C@H](C)/C=C(\C)[C@@H](O)[C@@H](OC)C(=O)[C@H](C)C[C@H](C)/C=C/C=C/C=C/1C` [Example 2, Rapamycin 42-ester with nicotinic acid], the “Skin graft survival” value with pinch skin graft turned out to be 9.60 ± 0.89 days. Further, the half-inhibitory concentration (IC50) in [5] (setting [6]) turned out to be 0.17 nM.

On to `CO[C@H]1C[C@@H]2CC[C@@H](C)[C@@](O)(O2)C(=O)C(=O)N2CCCC[C@H]2C(=O)O[C@H]([C@H](C)C[C@@H]2CC[C@@H](OC(=O)c3ccc(C)nc3)[C@H](OC)C2)CC(=O)[C@H](C)/C=C(\C)[C@@H](O)[C@@H](OC)C(=O)[C@H](C)C[C@H](C)/C=C/C=C/C=C/1C` [Example 3, Rapamycin 42-ester with 6-methylpyridine-3-carboxylic acid], for which, in the test on pinch skin graft, the “Skin graft survival” value was 12.5 ± 0.58 days. The “Percent change” value in [2] is listed as -87%. Also, in test [5] (setting [6]), the concentration for half-maximal inhibition (IC50) amounted to 0.6 nM.

The values above are taken from patent US5385909A, “Heterocyclic esters of rapamycin” (American Home Products Corporation, priority 1993, dated 1995).
